Assays:
H1299 = assay: Clonogenic survival assay; assay type: cell-based; settings: Homo sapiens, NCI-H1299; H1299 (p53 null), 24 h treatment, colonies after at least 10 days
Procedure: (§2) Cancer cells (200-300 cells/well) were seeded in 6-well culture dishes and allowed to adhere overnight. For 5-FdU, cells were treated for 24 h, then gently washed with PBS, and incubated with fresh media for at least 10 days to allow individual colonies to form. […] After 10-18 days, the plates were stained with methylene blue. Colonies containing ≥50 cells were counted. The percentage of survival was determined relative to untreated control averaged over 3 independent experiments.

DLD1 cells [1] = assay: DNA fiber assay (replication fork progression); assay type: cell-based, human; settings: 100 nM 5-FdU 24 h; for reduction of mean fiber length: vs untreated
Procedure: DNA fiber analysis was performed as described by Han et al. (J. Biol. (2015) 290:12370-8). Cells treated with 100 nM 5-FdU for 24 h were pulse-labeled with 100 μM chlorodeoxyuridine (CIdU) for 20 minutes, washed with PBS, and 25 μM Iododeoxyuridine (IdU) for 20 minutes. Cells were collected in PBS, and 2.5 μL of cell suspension was dropped on glass slide. 7.5 μL of lysis buffer (0.5% SDS, 200 mM Tris-HCl pH 7.4, 50 mM EDTA) was dropped on the cell suspension and lysis for 10 minutes. Slides were then tilted at 15° to spread the suspension and placed horizontally to allow air-dry. After drying, slides were fixed in 3:1 methanol:acetic acid for 15 minutes, washed with water, and placed at −20° C. overnight. Slides were then treated with 2.5 M HCl for 1 h, washed with PBS containing 0.1% Tween-20, washed twice with PBS, blocked in PBS containing 5% BSA and 0.1% Tween 20 for 20 minutes, and rinsed with PBS three times. After washing, 100 μL primary antibodies: mouse anti-BrdU/IdU (Becton Dickinson, 1:100) and rat anti-BrdU/CIdU (AbD Serotec, 1:400) diluted in PBS containing 5% BSA and 0.1% were added to incubate in a humid chamber for 4-6 h. After incubation, slides were washed with PBS three times, incubated with secondary fluorescent antibodies: sheep anti-mouse Alexa Fluor 488 (Life technologies) and donkey anti-rat Alexa Fluor 594 (Life technologies) diluted in PBS containing 5% BSA for 1 h. Slides were washed with PBS three times and mounted with Vectashield mounting medium. Image acquisition was performed on a Leica laser microscope. DNA fiber length was measured by using ImageJ software (NCl/NIH).

γH2AX foci in DLD1 cells = assay: γH2AX foci immunofluorescence staining; assay type: cell-based, human; settings: 50 nM 5-FdU
Procedure: (§1) Cells cultured on glass coverslips were treated with 5-FdU in the presence or absence of 10 μM caspase inhibitor Q-VD-OPH (BioVision Inc). Cells were fixed in 3.7% formaldehyde for 10 minutes, blocked with PBS containing 10% FBS and 0.1% Triton X-100 for 20 minutes, washed with PBS three times, and incubated with primary anti-γH2AX antibody (Millipore, dilution: 1:150) in PBS containing 0.1% Triton X-100 at 4° C. overnight. The cells were then washed with PBS three times, incubated with secondary antibodies (Alexa Fluor 594, Life Technologies; dilution: 1:400) in PBS containing 0.1% Triton X-100 for 1 h, and washed with PBS three times. The slides were mounted with antifade solution with DAPI (Cell Signaling) and visualized on a Leica laser microscope.

[2] = system: γH2AX foci in HEC1A cells; assay: γH2AX foci immunofluorescence staining; assay type: cell-based, human; settings: 50 nM 5-FdU
Procedure: as §1

p53 WT cancer lines = assay: Clonogenic survival assay, panel of p53 WT lines
Source text: p53 or UDG knockdown was achieved via shRNA transduction. Lentiviral vectors LV-THM-shp53 (which also expresses a GFP reporter) or LV-Bleo-shp53 to perform p53 KD in WT HCT116 cells were obtained from Case Western Reserve University, Cleveland, Ohio Lentiviral vector targeting GFP (sh-GFP) was used as control. UDG shRNA vectors (shUDG: NM_003362.2-656s21c1, shUDG-2: NM_003362.2-758s21c1, and shUDG-3: NM_003362.2-893s21c1) were purchased from Sigma, and a scramble targeting shRNA vector (Sigma) was used as paired control. The lentiviral production and infection were performed as previously described. Cells stably infected with LV-THM-p53 were isolated by cell sorting on the basis of their GFP expression.
as §2

DLD1 cells [3] = assay: LC-MS/MS of uracil and 5-FU incorporated in cellular DNA; settings: 5-FdU 100 and 200 nM 48 h
Procedure: Genomic DNA was extracted from cells treated with 5-FdU via phenol-chloroform mixture. 80 μg of DNA sample was dissolved in 1×UDG reaction buffer (20 mM Tris-HCl, 1 mM EDTA and 1 mM dithiothreitol, pH 8.0) and incubated with UDG enzyme (1 μL, 5 units) for 1 h at 37° C. For LC-MS/MS analysis of DNA-incorporated uracil and 5-FU, 75 μL of the enzyme reaction mixture was obtained, and uracil-1,3-^15N2 was used as the internal standard (Sigma-Aldrich). All uracil and 5-FU standards, internal standard, and QC samples were prepared in 1×UDG reaction buffer. […] Quantitation of the analytes was accomplished by a AB Sciex API 3200 triple quadrupole tandem mass spectrometer (AB Sciex), which was operated in the negative multiple-reaction-monitoring (MRM) mode with mass transitions of m/z 110.8>42.0 for uracil, m/z 112.9>43.0 for uracil-1,3-^15N2 and m/z 129.0>42.0 for 5-FU. This method has lower limits of quantitation of 2.50 ng/mL and linear calibration ranges up to 500 ng/mL for both uracil and 5-FU with a sample injection volume of 15 μL, as well as a total analysis time of 6 min.

Procedure for DLD1 colon cancer cells: UDG knockdown was performed via shRNA transduction with validated clone from Sigma-Aldrich. […] A non-targeted scramble control shRNA clone (Sigma-Aldrich) was also used. Transfection of shRNA clones was performed according to manufacturer's specifications from Lipofectamine 2000 (Invitrogen). Lentiviral particles were produced via HEK293 cells, and targeted cells were infected and selected with puromycin. The stable UDG knockdown levels were verified for q-PCR and western blot analysis.
Colonies were stained with methylene blue, and only colonies containing ≥50 cells were counted. The percentage of survival was determined relative to untreated control averaged over 3 independent experiments.

SMILES: O=c1[nH]c(=O)n([C@H]2C[C@H](O)[C@@H](CO)O2)cc1F [5-FdU, 5-fluorodeoxyuridine]
- IC50 (H1299): 269.6 ± 0.73 nM
- mean fiber length of nascent DNA strands (DLD1 cells [1]; UDG depleted cells): 2.8 μm
- reduction of mean fiber length (DLD1 cells [1]; UDG depleted cells): 63%
- mean fiber length of nascent DNA strands (DLD1 cells [1]; shSCR-transfected cells): 5.7 μm
- reduction of mean fiber length (DLD1 cells [1]; shSCR-transfected cells): 23%
- γH2AX foci number and percentage of cells with over 10 foci over time (γH2AX foci in DLD1 cells; DLD1 UDG depleted): remained persistent
- γH2AX foci number and percentage of cells with over 10 foci over time (γH2AX foci in DLD1 cells; DLD1 shSCR, after maximum at 12 h): gradually declined
- γH2AX foci number and percentage of cells with over 10 foci over time ([2]; HEC1A UDG depleted): remained high
- γH2AX foci number and percentage of cells with over 10 foci over time ([2]; HEC1A shSCR, after maximum at 48 h): reduced at 72 h and 96 h
- cell survival in shSCR-transfected cells (DLD1 colon cancer cells; DLD1 shSCR, high concentrations): moderate loss of cell viability
- effect of UDG depletion on drug sensitivity (DLD1 colon cancer cells; DLD1 shUDG vs shSCR): highly sensitized
- IC50 (p53 WT cancer lines; read-out: IC50 values, p53 WT cancer lines except A375): < 10 nM
- effect of UDG depletion on cytotoxicity (p53 WT cancer lines; shUDG vs shSCR, p53 WT cell lines): did not alter the cytotoxicity
- released uracil and 5-FU from genomic DNA (DLD1 cells [3]; shSCR-transfected cells): Very low levels
- released uracil and 5-FU from genomic DNA (DLD1 cells [3]; shUDG-transfected cells): significant increase

— patent US10722530B2, “Methods of diagnosing and treating cancer” (CASE WESTERN RESERVE UNIVERSITY, priority 2016, dated 2020)
